Data published in ChEMBL document CHEMBL1139605, “Novel ketal ligands for the glucocorticoid receptor: in vitro and in vivo activity” (Bioorg Med Chem Lett, 2005).
pEC50, pIC50: −log10 of the molar value. One block for each compound: values may come before it.

Tests used:
A549 [1] = assay: Effective concentration for inhibition of interleukin-6 in human A549 lung carcinoma cell line using 44% radiolabeled Dexamethasone; format: functional, cell-based
Glucocorticoid receptor [2] = biological target: T1, Glucocorticoid receptor (Homo sapiens, UniProt P04150); assay: Inhibition of human glucocorticoid receptor alpha isoform
T1 sequence (P04150 whole entry): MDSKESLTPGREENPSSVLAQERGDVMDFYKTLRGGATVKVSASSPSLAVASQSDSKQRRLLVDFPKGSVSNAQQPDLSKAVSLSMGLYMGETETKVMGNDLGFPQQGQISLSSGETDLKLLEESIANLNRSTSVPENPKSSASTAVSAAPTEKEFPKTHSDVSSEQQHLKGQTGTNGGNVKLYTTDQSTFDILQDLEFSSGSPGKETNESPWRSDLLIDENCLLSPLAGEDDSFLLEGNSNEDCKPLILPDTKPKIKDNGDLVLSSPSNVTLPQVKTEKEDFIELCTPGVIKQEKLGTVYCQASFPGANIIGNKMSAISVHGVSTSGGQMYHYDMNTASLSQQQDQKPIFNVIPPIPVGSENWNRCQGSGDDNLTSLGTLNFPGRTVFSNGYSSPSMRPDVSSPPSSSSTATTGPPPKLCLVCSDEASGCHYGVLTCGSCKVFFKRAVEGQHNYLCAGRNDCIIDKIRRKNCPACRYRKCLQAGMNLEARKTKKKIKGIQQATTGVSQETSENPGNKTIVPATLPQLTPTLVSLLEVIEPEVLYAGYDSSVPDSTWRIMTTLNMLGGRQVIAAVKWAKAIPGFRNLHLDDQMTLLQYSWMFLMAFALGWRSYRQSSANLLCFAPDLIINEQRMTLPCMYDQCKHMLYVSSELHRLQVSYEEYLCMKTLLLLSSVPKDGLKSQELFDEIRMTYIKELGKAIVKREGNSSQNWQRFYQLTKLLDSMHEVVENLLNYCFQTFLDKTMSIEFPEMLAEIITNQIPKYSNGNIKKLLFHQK

Mus musculus [3] = species: Mus musculus; assay: Effective concentration required for inhibition of interleukin-6 in mouse thioglycolate-elicited peritoneal exudate cell line using 69% radiolabeled Dexamethasone; format: functional
A549 [4] = assay: Effective concentration for inhibition of interleukin-6 in human A549 lung carcinoma cell line using 62% radiolabeled Dexamethasone; format: functional, cell-based
A549 [5] = assay: Effective concentration for inhibition of interleukin-6 in human A549 lung carcinoma cell line using 46% radiolabeled Dexamethasone; format: functional, cell-based
A549 [6] = assay: Effective concentration for inhibition of interleukin-6 in human A549 lung carcinoma cell line using 35% radiolabeled Dexamethasone; format: functional, cell-based
A549 [7] = assay: Effective concentration for inhibition of interleukin-6 in human A549 lung carcinoma cell line using 60% radiolabeled Dexamethasone; format: functional, cell-based
Estrogen receptor = biological target: T2, Estrogen receptor (Homo sapiens, UniProt P03372); assay: Binding affinity for human estrogen receptor alpha
T2 sequence (P03372 whole entry): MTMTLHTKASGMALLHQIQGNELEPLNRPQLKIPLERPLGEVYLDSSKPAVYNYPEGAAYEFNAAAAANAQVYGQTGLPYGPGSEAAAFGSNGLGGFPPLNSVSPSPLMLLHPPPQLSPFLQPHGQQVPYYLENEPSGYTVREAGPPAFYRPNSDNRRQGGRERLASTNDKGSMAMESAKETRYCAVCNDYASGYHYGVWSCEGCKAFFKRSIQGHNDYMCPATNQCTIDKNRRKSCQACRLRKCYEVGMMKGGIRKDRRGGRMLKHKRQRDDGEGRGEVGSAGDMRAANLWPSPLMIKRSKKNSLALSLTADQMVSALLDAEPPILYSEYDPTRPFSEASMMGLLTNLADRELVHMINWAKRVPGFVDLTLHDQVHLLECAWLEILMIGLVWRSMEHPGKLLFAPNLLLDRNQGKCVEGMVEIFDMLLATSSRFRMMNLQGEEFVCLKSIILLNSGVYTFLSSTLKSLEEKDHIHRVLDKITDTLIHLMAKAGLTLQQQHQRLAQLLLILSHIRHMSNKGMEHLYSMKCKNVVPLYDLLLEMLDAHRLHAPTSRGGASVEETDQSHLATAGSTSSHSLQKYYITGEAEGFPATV

Glucocorticoid receptor [8] = biological target: T1, Glucocorticoid receptor; assay: Binding affinity for human glucocorticoid receptor
[9] = Clearance data in mouse at 2 mg/kg IV administration; format: ADME, organism-based; design: dose 2 mg/kg, route intravenous; conditions: in vivo
Estrogen receptor beta = Estrogen receptor beta (Homo sapiens, UniProt Q92731); assay: Binding affinity for human estrogen receptor beta
Estrogen receptor beta, sequence (Q92731 whole entry): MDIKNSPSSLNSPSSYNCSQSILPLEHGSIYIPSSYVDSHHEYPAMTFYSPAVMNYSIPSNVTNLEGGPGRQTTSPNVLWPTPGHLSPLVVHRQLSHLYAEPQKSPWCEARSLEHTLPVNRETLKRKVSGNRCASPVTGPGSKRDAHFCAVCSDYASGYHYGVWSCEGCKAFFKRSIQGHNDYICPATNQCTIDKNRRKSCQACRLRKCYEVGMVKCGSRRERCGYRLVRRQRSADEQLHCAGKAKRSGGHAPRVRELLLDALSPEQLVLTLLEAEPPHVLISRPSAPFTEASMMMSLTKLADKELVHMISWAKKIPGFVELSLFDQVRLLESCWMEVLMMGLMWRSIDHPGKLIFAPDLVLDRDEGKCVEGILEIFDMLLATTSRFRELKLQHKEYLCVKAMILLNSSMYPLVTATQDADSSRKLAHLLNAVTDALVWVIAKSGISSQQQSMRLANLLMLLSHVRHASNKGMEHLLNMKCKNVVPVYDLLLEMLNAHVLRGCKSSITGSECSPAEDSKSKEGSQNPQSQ

[10] = Volume of distribution in mouse at 2 mg/kg IV administration; format: ADME, organism-based; design: dose 2 mg/kg, route intravenous; conditions: in vivo, read-out: Volume of distribution
Mus musculus [11] = species: Mus musculus; assay: Effective concentration required for interleukin-6 transrepression in peritoneal exudate cells of C57B1/6 mouse using 69% Dexamethasone; format: functional, cell-based
[12] = Half life time in mouse at 2 mg/kg IV administration; format: ADME, organism-based; design: dose 2 mg/kg, route intravenous; conditions: in vivo
[13] = Bioavailability in mouse (dose 10 mg/kg p.o.); format: ADME, organism-based; conditions: in vivo, po
Mus musculus [14] = assay: Inhibition of LPS induced TNF-alpha secretion in mouse at an oral dose of 30 mg/kg relative to that produced by Dexamethasone at a dose of 0.3 mg/kg; format: functional
[15] = biological target: T3, Mineralocorticoid receptor (Rattus norvegicus, UniProt P22199); assay: Binding affinity for rat mineralocorticoid receptor
T3 sequence (P22199 whole entry): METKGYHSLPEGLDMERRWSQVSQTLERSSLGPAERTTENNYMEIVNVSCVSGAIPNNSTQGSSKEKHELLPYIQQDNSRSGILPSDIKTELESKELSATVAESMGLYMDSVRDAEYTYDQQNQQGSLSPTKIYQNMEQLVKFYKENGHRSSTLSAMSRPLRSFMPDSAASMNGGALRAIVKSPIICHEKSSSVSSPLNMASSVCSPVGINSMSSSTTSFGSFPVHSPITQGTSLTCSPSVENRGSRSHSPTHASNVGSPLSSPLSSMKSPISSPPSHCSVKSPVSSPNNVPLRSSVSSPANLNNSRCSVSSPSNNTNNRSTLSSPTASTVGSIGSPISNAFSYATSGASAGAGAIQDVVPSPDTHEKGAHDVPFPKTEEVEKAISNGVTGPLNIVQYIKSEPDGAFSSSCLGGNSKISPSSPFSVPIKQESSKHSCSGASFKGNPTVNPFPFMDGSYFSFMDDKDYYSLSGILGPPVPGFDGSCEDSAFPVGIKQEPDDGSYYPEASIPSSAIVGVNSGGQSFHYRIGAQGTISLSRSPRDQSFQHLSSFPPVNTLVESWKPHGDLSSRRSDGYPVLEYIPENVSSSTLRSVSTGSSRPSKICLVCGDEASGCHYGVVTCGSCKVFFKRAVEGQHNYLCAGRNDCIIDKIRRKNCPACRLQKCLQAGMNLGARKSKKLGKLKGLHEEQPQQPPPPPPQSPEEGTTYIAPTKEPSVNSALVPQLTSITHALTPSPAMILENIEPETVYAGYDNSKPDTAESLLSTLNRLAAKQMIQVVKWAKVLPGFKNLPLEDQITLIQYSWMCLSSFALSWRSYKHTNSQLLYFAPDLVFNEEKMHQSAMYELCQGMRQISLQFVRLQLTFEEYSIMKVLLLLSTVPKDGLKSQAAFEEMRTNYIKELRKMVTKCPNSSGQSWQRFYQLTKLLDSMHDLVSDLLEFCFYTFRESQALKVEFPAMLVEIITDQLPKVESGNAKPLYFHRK

Mus musculus [16] = species: Mus musculus; assay: Effective concentration required for inhibition of interleukin-6 in mouse thioglycolate-elicited peritoneal exudate cell line using 64% radiolabeled Dexamethasone; format: functional
A549 [17] = assay: Effective concentration for inhibition of interleukin-6 in human A549 lung carcinoma cell line using 64% radiolabeled Dexamethasone; format: functional, cell-based

Structure (SMILES): C[C@@H]1CC(C)(C)O[C@]2(CCC3=Cc4c(cnn4-c4ccc(F)cc4)C[C@@]32C)O1
pEC50 (A549 [1]): 7.92
pIC50 (Glucocorticoid receptor [2]): 8.66

Structure (SMILES): C[C@@H]1CCO[C@@]2(CCC3=Cc4c(cnn4-c4ccc(F)cc4)C[C@@]32C)O1
pEC50 (A549 [5]): 9.32
pIC50 (Glucocorticoid receptor [2]): 7.74

Structure (SMILES): C[C@@H]1C[C@H](C)O[C@@]2(CCC3=Cc4c(cnn4-c4ccc(F)cc4)C[C@@]32C)O1
pEC50 (Mus musculus [16]): 7.72
pEC50 (A549 [17]): 7.59
pIC50 (Glucocorticoid receptor [2]): 8.51

Further compounds by rising pIC50 (Glucocorticoid receptor [2]), results first:

pEC50 (Mus musculus [3]): 8.00
pEC50 (A549 [4]): 8.08
pIC50 (Glucocorticoid receptor [2]): 7.59
Structure (SMILES): COC[C@H]1OC2(CCC3=Cc4c(cnn4-c4ccc(F)cc4)C[C@@]32C)O[C@@H]1COC

pIC50 (Glucocorticoid receptor [2]): 7.68
pEC50 (A549 [6]): 9.28
Structure (SMILES): C[C@H]1CCO[C@]2(CCC3=Cc4c(cnn4-c4ccc(F)cc4)C[C@@]32C)O1

pEC50 (Mus musculus [3]): 7.27
pEC50 (A549 [7]): 7.89
pIC50 (Estrogen receptor): < 5.00
pIC50 (Glucocorticoid receptor [8]): 8.15
clearance [9]: 118 mL/min/kg
pIC50 (Estrogen receptor beta): < 5.00
Vd [10]: 27.2 L/kg
pIC50 (Glucocorticoid receptor [2]): 8.15
pEC50 (Mus musculus [11]): 7.27
half-life [12]: 3 h
bioavailability [13]: 23%
pIC50 [15]: < 5.00
Structure (SMILES): C[C@H]1C[C@H](C)OC2(CCC3=Cc4c(cnn4-c4ccc(F)cc4)C[C@@]32C)O1 (stereo not given in full)
Inhibition (Mus musculus [14]): 80.8%
